According to the NIST ThermoML archive (doi:10.1016/j.jct.2007.07.005):

Experiment: xn = mol fraction of the nth substance listed
Conditions: Fluid (supercritical or subcritical phases), vibrating tube

CCCCCO [pentan-1-ol] + O=C=O
Conditions | mass density [kg/m3]
323.06 K, 13032 kPa, x2 = 0.9216 | 766.64
323.06 K, 14000 kPa, x2 = 0.8573 | 804.66
323.06 K, 14011 kPa, x2 = 0.9216 | 778.82
323.06 K, 15019 kPa, x2 = 0.8573 | 812.19
323.06 K, 15028 kPa, x2 = 0.9216 | 789.81
323.06 K, 15995 kPa, x2 = 0.9216 | 799.06
323.06 K, 16044 kPa, x2 = 0.8573 | 819.03
323.06 K, 17005 kPa, x2 = 0.8573 | 824.92
323.06 K, 17047 kPa, x2 = 0.9216 | 808.18
323.06 K, 18002 kPa, x2 = 0.9216 | 815.71
323.06 K, 18049 kPa, x2 = 0.8573 | 830.83
323.06 K, 19010 kPa, x2 = 0.8573 | 835.97
323.06 K, 19033 kPa, x2 = 0.9216 | 823.28
323.06 K, 19996 kPa, x2 = 0.9216 | 829.83
323.06 K, 20006 kPa, x2 = 0.8573 | 840.95
323.06 K, 20987 kPa, x2 = 0.8573 | 845.64
323.06 K, 21053 kPa, x2 = 0.9216 | 836.6
323.06 K, 21758 kPa, x2 = 0.9216 | 840.85
323.06 K, 22019 kPa, x2 = 0.8573 | 850.27
323.06 K, 23021 kPa, x2 = 0.8573 | 854.64
323.06 K, 24075 kPa, x2 = 0.8573 | 858.97
323.08 K, 11058 kPa, x2 = 0.7274 | 819.26
323.08 K, 12031 kPa, x2 = 0.7274 | 823.11
323.08 K, 13034 kPa, x2 = 0.7274 | 826.85
323.08 K, 14040 kPa, x2 = 0.7274 | 830.38
323.08 K, 15010 kPa, x2 = 0.7274 | 833.59
323.08 K, 16026 kPa, x2 = 0.7274 | 836.83
323.08 K, 17015 kPa, x2 = 0.7274 | 839.83
323.08 K, 17987 kPa, x2 = 0.7274 | 842.68
323.08 K, 19054 kPa, x2 = 0.7274 | 845.68
323.08 K, 19981 kPa, x2 = 0.7274 | 848.2
323.08 K, 21008 kPa, x2 = 0.7274 | 850.93
323.08 K, 22014 kPa, x2 = 0.7274 | 853.5
323.08 K, 23019 kPa, x2 = 0.7274 | 855.98
323.08 K, 23836 kPa, x2 = 0.7274 | 857.96
323.11 K, 6015 kPa, x2 = 0.1347 | 801.54
323.11 K, 7002 kPa, x2 = 0.1347 | 802.41
323.11 K, 8020 kPa, x2 = 0.1347 | 803.27
323.11 K, 9002 kPa, x2 = 0.1347 | 804.12
323.11 K, 9115 kPa, x2 = 0.6054 | 824.57
323.11 K, 10017 kPa, x2 = 0.1347 | 804.97
323.11 K, 10057 kPa, x2 = 0.6054 | 826.64
323.11 K, 11055 kPa, x2 = 0.1347 | 805.83
323.11 K, 11062 kPa, x2 = 0.6054 | 828.82
323.11 K, 12029 kPa, x2 = 0.1347 | 806.64
323.11 K, 12049 kPa, x2 = 0.6054 | 830.92
323.11 K, 13031 kPa, x2 = 0.1347 | 807.47
323.11 K, 13068 kPa, x2 = 0.6054 | 833.05
323.11 K, 14038 kPa, x2 = 0.1347 | 808.26
323.11 K, 14062 kPa, x2 = 0.6054 | 835.02
323.11 K, 15022 kPa, x2 = 0.1347 | 809.05
323.11 K, 15036 kPa, x2 = 0.6054 | 836.96
323.11 K, 16015 kPa, x2 = 0.1347 | 809.84
323.11 K, 16032 kPa, x2 = 0.6054 | 838.86
323.11 K, 17022 kPa, x2 = 0.1347 | 810.64
323.11 K, 17053 kPa, x2 = 0.6054 | 840.77
323.11 K, 18041 kPa, x2 = 0.1347 | 811.39
323.11 K, 18069 kPa, x2 = 0.6054 | 842.62
323.11 K, 19010 kPa, x2 = 0.1347 | 812.15
323.11 K, 19041 kPa, x2 = 0.6054 | 844.36
323.11 K, 20025 kPa, x2 = 0.1347 | 812.91
323.11 K, 20032 kPa, x2 = 0.6054 | 846.09
